Assay results from article PMC8330735 (Journal of Enzyme Inhibition and Medicinal Chemistry, 2021).

Assays:
[1] = tested on: carrageenan-induced rat paw oedema; test: Carrageenan-induced rat paw oedema test; assay type: in vivo; conditions: compounds and celecoxib 50 mg/kg, ibuprofen and indomethacin 20 mg/kg; for Mean oedema thickness 1h: 1 h after carrageenan; for Mean oedema thickness 1h / Mean oedema thickness 2h / Mean oedema thickness 3h / Mean oedema thickness 4h / Mean oedema thickness 5h / Mean oedema thickness 24h / Mean oedema thickness 0h: mean ± SEM, n = 5; for Mean oedema thickness 2h: 2 h after carrageenan; for Mean oedema thickness 3h: 3 h after carrageenan; for Mean oedema thickness 4h: 4 h after carrageenan; for Mean oedema thickness 5h: 5 h after carrageenan; for Mean oedema thickness 24h: 24 h after carrageenan; for Mean oedema thickness 0h: before carrageenan (0 h); for Average oedema inhibition%: from area under the curve of all time points
Protocol: The rats were divided into nine groups (n = 5/group). All tested compounds were suspended in 1% Tween-80. Group 1, controls, were given the vehicle (1% Tween80, 10 ml/kg). […] The rats were given the drugs 1 h before the injection of carrageenan solution (1% in 0.9% NaCl, 0.1 ml) (Sigma Aldrich, USA) in the sub-planter tissue of the right hind paw. The paw thickness (mm) was measured using a calliper before (0 h) and after carrageenan injection at 1, 2, 3, 4, 5 and 24 h. The inhibition of oedema thickness was calculated using the following formula (control– drug/control) × 100.

[2] = tested on: stomach ulceration in rats; test: Gastric acute ulcerogenic activity; conditions: rat, n = 5; for Ulcer Index (UI): UI = UN + US + UP×10^−1
Protocol: The rats from the previous experiment were fasted for 12 h., followed by the administration of additional doses of the selected compounds or the two references for two consecutive days. Six hrs after the last treatment, the animals were sacrificed, and their stomachs were removed, washed with saline solution (0.9%) and examined for ulceration using a magnifying lens. The ulcer scores were estimated according to the method prescribed by Kulkarni and as detailed in our previous studies[36–38]. The following scores were individually assigned to each lesion: normal coloured stomach, 0; red colouration, 0.5; spot ulcers, 1; haemorrhagic streaks, 1.5; ulcer >3 but <5 mm, 2; and ulcers >5 mm, 3.

melting point [°C]	SMILES	Mean oedema thickness 1h [1] [mm]	Mean oedema thickness 2h [1] [mm]	Mean oedema thickness 3h [1] [mm]	Mean oedema thickness 4h [1] [mm]	Mean oedema thickness 5h [1] [mm]	Mean oedema thickness 24h [1] [mm]	Mean oedema thickness 0h [1] [mm]	Average oedema inhibition% [1] [%]	Average Ulcer number [2]	Lesion Incidence (%) [2] [%]	Number of rats with ulcer [2]	Ulcer Index (UI) [2]
111 to 116	CC(C)Cc1ccc(C(C)C(=O)NN2C(=O)c3ccccc3N(C)C2c2ccc([N+](=O)[O-])cc2)cc1 (centres unmarked) [7c, 2-(4-Isobutylphenyl)-N-(1-methyl-2-(4-nitrophenyl)-4-oxo-1,4-dihydroquinazolin-3(2H)-yl) propenamide]	1.79 ± 0.04	2.21 ± 0.35	1.90 ± 0.44	1.62 ± 0.26	1.55 ± 0.29	0.06 ± 0.04	0.00 ± 0.00	45.37	1	60	3	8
210 to 215	NNC(=O)CSc1nc2ccccc2c(=O)n1NC(=O)Cc1ccccc1 [13b, N-(2-((2-hydrazinyl-2-oxoethyl)thio)-4-oxoquinazolin-3(4H)-yl)-2-phenylacetamide]	2.26 ± 0.30	2.58 ± 0.41	2.67 ± 0.15	1.97 ± 0.29	1.61 ± 0.23	0.45 ± 0.14	0.00 ± 0.00	45.49	0.4	40	2	4.8
